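Dose response: 5 concentrations. Exposure: 48 h. Format: 96-well plates. Endpoint: linear interpolation; highest concentration if not reached. At the GI50, growth is halved. TGI denotes the concentration required for complete inhibition of growth.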
Legend:
Experiment in all cases: NCI-60 cell line screen, 48 h
[1] = tested on: CAKI-1 renal
[2] = tested on: OVCAR-8 ovarian
[3] = tested on: MALME-3M melanoma
[4] = tested on: COLO 205 colon
[5] = tested on: HT29 colon
[6] = tested on: DU-145 prostate
[7] = tested on: SNB-19 CNS
[8] = tested on: NCI/ADR-RES ovarian
[9] = tested on: OVCAR-5 ovarian
[10] = tested on: SK-MEL-28 melanoma
[11] = tested on: IGROV1 ovarian
[12] = tested on: NCI-H226 lung
[13] = tested on: SF-295 CNS
[14] = tested on: OVCAR-4 ovarian
[15] = tested on: HOP-92 NSCLC
[16] = tested on: MCF7 breast
[17] = tested on: PC-3 prostate
[18] = tested on: CCRF-CEM leukemia
[19] = tested on: KM12 colon
[20] = tested on: UACC-257 melanoma
[21] = tested on: MDA-MB-231 breast
[22] = tested on: SF-268 CNS
[23] = tested on: HCT-15 colon
[24] = tested on: A549 NSCLC
[25] = tested on: NCI-H460 lung
[26] = tested on: HS 578T breast
[27] = tested on: NCI-H522 lung
[28] = tested on: K-562 leukemia
[29] = tested on: SR leukemia
[30] = tested on: BT-549 breast
[31] = tested on: SF-539 CNS
[32] = tested on: OVCAR-3 ovarian
[33] = tested on: HL-60(TB) leukemia
[34] = tested on: SN12C renal
[35] = tested on: RPMI-8226 leukemia
[36] = tested on: SK-OV-3 ovarian
[37] = tested on: ACHN renal
[38] = tested on: T-47D breast
[39] = tested on: U251 CNS
[40] = tested on: M14 melanoma
[41] = tested on: UACC-62 melanoma
[42] = tested on: EKVX NSCLC
[43] = tested on: SK-MEL-5 melanoma
[44] = tested on: SW-620 colon
[45] = tested on: HOP-62 NSCLC
[46] = tested on: UO-31 renal
[47] = tested on: RXF 393 renal
[48] = tested on: MDA-MB-435
[49] = tested on: TK-10 renal
[50] = tested on: MOLT-4 leukemia
[51] = tested on: HCC-2998 colon
[52] = tested on: A498 renal
[53] = tested on: SNB-75 CNS
[54] = tested on: SK-MEL-2 melanoma
[55] = tested on: 786-0 renal
[56] = tested on: HCT-116 colon

SMILES: CCCCCCNC(=O)Oc1ccc(/C(=C(/C)c2ccccc2)c2ccc(OCCN3CCCCCC3)cc2)cc1
- GI50 [1]: 2.74 µM
- TGI [1]: 11.9 µM
- GI50 [2]: 13.1 µM
- TGI [2]: 26.6 µM
- GI50 [3]: 7.97 µM
- TGI [3]: 21.5 µM
- GI50 [4]: 3.14 µM
- TGI [4]: 12.1 µM
- GI50 [5]: 3.07 µM
- TGI [5]: 11.1 µM
- GI50 [6]: 15.7 µM
- TGI [6]: 37.7 µM
- GI50 [7]: 16.6 µM
- TGI [7]: 69.8 µM
- GI50 [8]: 12.3 µM
- TGI [8]: 28.8 µM
- GI50 [9]: 12.4 µM
- TGI [9]: 27 µM
- GI50 [10]: 5.98 µM
- TGI [10]: 19.8 µM
- GI50 [11]: 11.9 µM
- TGI [11]: 27.9 µM
- GI50 [12]: 13.3 µM
- TGI [12]: 28.7 µM
- GI50 [13]: 5.74 µM
- TGI [13]: 18.6 µM
- GI50 [14]: 10 µM
- TGI [14]: 23.4 µM
- GI50 [15]: 2.9 µM
- TGI [15]: 14.9 µM
- GI50 [16]: 0.172 µM
- TGI [16]: 13.1 µM
- GI50 [17]: 6.2 µM
- TGI [17]: 20.4 µM
- GI50 [18]: 11.5 µM
- TGI [18]: > 100 µM
- GI50 [19]: 6.31 µM
- TGI [19]: 35.6 µM
- GI50 [20]: 3.75 µM
- TGI [20]: 14.5 µM
- GI50 [21]: 12.8 µM
- TGI [21]: 26.8 µM
- GI50 [22]: 12.7 µM
- TGI [22]: 29.4 µM
- GI50 [23]: 2.83 µM
- TGI [23]: 9.61 µM
- GI50 [24]: 12.1 µM
- TGI [24]: 26.4 µM
- GI50 [25]: 4.27 µM
- TGI [25]: 16.1 µM
- GI50 [26]: 8.02 µM
- TGI [26]: 26.9 µM
- GI50 [27]: 12.6 µM
- TGI [27]: 26 µM
- GI50 [28]: 2.87 µM
- TGI [28]: > 100 µM
- GI50 [29]: 2.58 µM
- TGI [29]: 12 µM
- GI50 [30]: 8.55 µM
- TGI [30]: 21.8 µM
- GI50 [31]: 7.23 µM
- TGI [31]: 21 µM
- GI50 [32]: 12 µM
- TGI [32]: 28.8 µM
- GI50 [33]: 2.79 µM
- TGI [33]: 17.7 µM
- GI50 [34]: 10.4 µM
- TGI [34]: 23.7 µM
- GI50 [35]: 3.99 µM
- TGI [35]: 23 µM
- GI50 [36]: 13 µM
- TGI [36]: 26.4 µM
- GI50 [37]: 13.3 µM
- TGI [37]: 26.2 µM
- GI50 [38]: 3.07 µM
- TGI [38]: 21 µM
- GI50 [39]: 7.25 µM
- TGI [39]: 20.7 µM
- GI50 [40]: 2.89 µM
- TGI [40]: 11.1 µM
- GI50 [41]: 9.09 µM
- TGI [41]: 22 µM
- GI50 [42]: 13.2 µM
- TGI [42]: 31.2 µM
- GI50 [43]: 14.2 µM
- TGI [43]: 27.6 µM
- GI50 [44]: 3.18 µM
- TGI [44]: 12.5 µM
- GI50 [45]: 13 µM
- TGI [45]: 26.9 µM
- GI50 [46]: 4.02 µM
- TGI [46]: 17 µM
- GI50 [47]: 2.63 µM
- TGI [47]: 9.11 µM
- GI50 [48]: 10.8 µM
- TGI [48]: 23.3 µM
- GI50 [49]: 16.3 µM
- TGI [49]: 30.5 µM
- GI50 [50]: 3.48 µM
- TGI [50]: 25 µM
- GI50 [51]: 11 µM
- TGI [51]: 23.5 µM
- GI50 [52]: 15.7 µM
- TGI [52]: 29.4 µM
- GI50 [53]: 9.25 µM
- TGI [53]: 21.7 µM
- GI50 [54]: 14.1 µM
- TGI [54]: 27.6 µM
- GI50 [55]: 5.42 µM
- TGI [55]: 18.7 µM
- GI50 [56]: 4.33 µM
- TGI [56]: 16.9 µM
